The values below come from PubChem BioAssay (NCI).

Some test systems named below: ACHN renal; HCT-15 colon; HL-60(TB) leukemia; HOP-92 NSCLC; LOX IMVI melanoma; MCF7 breast; MDA-MB-435; NCI/ADR-RES ovarian; RXF 393 renal; NCI-H23 lung.
Common to all, as to experiment: NCI tumour cell line growth inhibition, 48 h

Where “and” joins values, the source holds several entries; their conditions need not be identical. Equal values may be shown once.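 Step 1: Grow cells in 96-well plates. Step 2: Expose to compound for 48 hours at 5 concentrations. Step 3: Interpolate endpoints linearly; if unreached, use highest concentration. GI50 marks 50% less growth. TGI: total growth inhibition.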

Take `N#Cc1c(N)nc(N2CCOCC2)c(C#N)c1-c1c(Cl)cccc1Cl`: the GI50 is 13400 nM in the test with ACHN renal; 4040 nM in the test on HCT-15 colon; 4750 nM in the test on HL-60(TB) leukemia; 4680 nM with HOP-92 NSCLC; 5880 nM in the test on LOX IMVI melanoma; 2920 nM with MCF7 breast. Further, the GI50 in the test on MDA-MB-435 was 1570 nM; in the test with NCI/ADR-RES ovarian, 2340 nM; in the test on RXF 393 renal it was 4580 nM. Also, the TGI in the test on ACHN renal turned out to be 44500 nM; in the test with HCT-15 colon, 25800 nM; in the test on HL-60(TB) leukemia, 20900 nM; in the test on HOP-92 NSCLC, 46000 nM; with LOX IMVI melanoma it was 24000 nM; with MCF7 breast, 16400 nM. In addition, the values for the TGI in the test with MDA-MB-435, with NCI/ADR-RES ovarian and in the test with RXF 393 renal were 3800 nM, 7460 nM and 28300 nM, respectively.

As for `COc1ccc2c(c1)nnc1c3cccnc3[nH]c21`, the GI50 in the test with ACHN renal is 231 nM; in the test with HCT-15 colon it was 2260 nM and 2300 nM; in the test with HL-60(TB) leukemia, 158 nM and 243 nM; in the test on HOP-92 NSCLC it was 81.7 nM and 131 nM; with LOX IMVI melanoma, 758 nM and 403 nM; in the test on MCF7 breast it was 228 nM and 209 nM. Further, the GI50 with MDA-MB-435 is 1440 nM and 1520 nM; in the test with NCI-H23 lung it was 5500 nM and 3040 nM; in the test on NCI/ADR-RES ovarian it was 1790 nM and 1920 nM; in the test with RXF 393 renal, 660 nM and 1760 nM. The TGI in the test with ACHN renal was more than 100000 nM; with HCT-15 colon, 50000 nM and 12900 nM; with HOP-92 NSCLC it was 1110 nM and 3260 nM; in the test on LOX IMVI melanoma, 4220 nM and 2610 nM; in the test on MCF7 breast, 966 nM and 1410 nM; in the test with MDA-MB-435, 9430 nM and 12300 nM. Also, the TGI was 14100 nM and 14900 nM with NCI-H23 lung; 12500 nM and 18900 nM with NCI/ADR-RES ovarian; 2150 nM and 12600 nM in the test on RXF 393 renal.

On to `COc1cnccc1Nc1nc(-c2nn(Cc3c(F)cc(OCCO)cc3F)c3ccccc23)ncc1OC`, for which the GI50 in the test on ACHN renal is 11900 nM; in the test with HCT-15 colon it was 2630 nM; in the test with HL-60(TB) leukemia, 1420 nM; with HOP-92 NSCLC, 634 nM; with LOX IMVI melanoma, 1840 nM; in the test on MCF7 breast, 1650 nM. The GI50 in the test with MDA-MB-435 is 1730 nM; with NCI-H23 lung, 2250 nM; in the test with NCI/ADR-RES ovarian it was 2970 nM; in the test with RXF 393 renal, 3850 nM. In addition, the TGI is 30500 nM in the test with ACHN renal; more than 100000 nM in the test on HCT-15 colon; more than 100000 nM in the test with HL-60(TB) leukemia; more than 100000 nM with HOP-92 NSCLC; 19300 nM in the test with LOX IMVI melanoma; 6160 nM in the test with MCF7 breast. Further, the TGI in the test with MDA-MB-435 worked out at 6180 nM; in the test with NCI-H23 lung, 8690 nM; in the test with NCI/ADR-RES ovarian, 16500 nM; in the test with RXF 393 renal it was 17100 nM.

Turning to `Cc1c(-c2ccccn2)ccc2ccccc12`, the TGI in the test on ACHN renal, with HCT-15 colon, in the test on HL-60(TB) leukemia, in the test on HOP-92 NSCLC, with LOX IMVI melanoma and with MCF7 breast was more than 100000 nM throughout. For the same compound, the TGI with MDA-MB-435 was more than 100000 nM; in the test on NCI-H23 lung, more than 100000 nM; with NCI/ADR-RES ovarian, more than 100000 nM; in the test on RXF 393 renal, 93200 nM.

As for `CCOC(=O)/C=C1/SC(=Nc2ccc(C#N)cc2)N(Cc2ccco2)C1=O`, the GI50 with ACHN renal was 1780 nM; in the test on HCT-15 colon, 2020 nM; in the test with HL-60(TB) leukemia, 2380 nM; with HOP-92 NSCLC, 4510 nM; in the test on LOX IMVI melanoma it was 1720 nM; with MCF7 breast, 2700 nM. The GI50 with MDA-MB-435 was 3440 nM; in the test on NCI-H23 lung it was 10600 nM; with NCI/ADR-RES ovarian, 3420 nM; in the test on RXF 393 renal, 1480 nM. Moreover, the TGI in the test on ACHN renal was found to be 3330 nM; in the test with HCT-15 colon, 5130 nM; in the test on HL-60(TB) leukemia, 5760 nM; with HOP-92 NSCLC, 22900 nM; in the test on LOX IMVI melanoma it was 3320 nM; in the test with MCF7 breast it was 12700 nM. The TGI was 15800 nM in the test on MDA-MB-435, 34500 nM in the test with NCI-H23 lung, 90800 nM in the test on NCI/ADR-RES ovarian and 2960 nM with RXF 393 renal.

In the case of `CC/C=C\C[C@H]1C/C=C2/C(=O)C(Cl)=C[C@@H]2C/C=C\CCCC(=O)O1`, the GI50 is 300 nM with ACHN renal; 109 nM with HCT-15 colon; 527 nM in the test on HL-60(TB) leukemia; 499 nM in the test with HOP-92 NSCLC; 159 nM in the test with LOX IMVI melanoma; 83.6 nM in the test on MCF7 breast. For the same compound, the GI50 is 169 nM with MDA-MB-435, 459 nM with NCI-H23 lung, 423 nM with NCI/ADR-RES ovarian and 400 nM in the test on RXF 393 renal. For the same compound, the TGI with ACHN renal was 799 nM; in the test on HCT-15 colon it was 720 nM; in the test on HL-60(TB) leukemia, 2700 nM; with HOP-92 NSCLC, 1600 nM; with LOX IMVI melanoma, 520 nM; in the test on MCF7 breast, 2610 nM. Besides, the TGI in the test on MDA-MB-435 was found to be 1430 nM; in the test with NCI-H23 lung it was 1220 nM; with NCI/ADR-RES ovarian, 2370 nM; in the test with RXF 393 renal, 802 nM.

For the compound `C(=N\Nc1ccc2ccccc2n1)/c1ccccn1`, the GI50 in the test with ACHN renal is 367 nM; in the test with HCT-15 colon, 377 nM; with HL-60(TB) leukemia it was 279 nM; with HOP-92 NSCLC, 816 nM; in the test on LOX IMVI melanoma it was 422 nM; with MCF7 breast, 440 nM. Besides, the GI50 is 1010 nM in the test on MDA-MB-435, 857 nM in the test with NCI-H23 lung, 345 nM in the test with NCI/ADR-RES ovarian and 443 nM in the test on RXF 393 renal. Besides, the TGI is more than 43900 nM with ACHN renal; more than 100000 nM with HCT-15 colon; 2300 nM in the test with HL-60(TB) leukemia; 32800 nM in the test with HOP-92 NSCLC; 13800 nM in the test with LOX IMVI melanoma; more than 100000 nM in the test with MCF7 breast. Besides, the TGI in the test with MDA-MB-435 is more than 52700 nM; with NCI-H23 lung, more than 100000 nM; in the test on NCI/ADR-RES ovarian, 10600 nM; with RXF 393 renal, more than 52000 nM.

For `NS(=O)(=O)c1ccc(N=Nc2c[nH]c(=O)c(O)c2)cc1`, the TGI with ACHN renal, in the test on HCT-15 colon, in the test on HL-60(TB) leukemia, in the test on HOP-92 NSCLC, in the test with LOX IMVI melanoma and in the test with MCF7 breast was more than 100000 nM throughout. Further, the TGI in the test on MDA-MB-435, with NCI-H23 lung, in the test with NCI/ADR-RES ovarian and in the test with RXF 393 renal was more than 100000 nM each time.
